The values that follow come from BindingDB's records for doi:10.1021/jm701383e (Merck Serono, 2008).

pEC50, pIC50, pKi: −log10 of the molar value.

One experiment deals with T1, Prostaglandin D2 receptor 2 (Homo sapiens, UniProt Q9Y5Y4).
T1 sequence (Q9Y5Y4 whole entry): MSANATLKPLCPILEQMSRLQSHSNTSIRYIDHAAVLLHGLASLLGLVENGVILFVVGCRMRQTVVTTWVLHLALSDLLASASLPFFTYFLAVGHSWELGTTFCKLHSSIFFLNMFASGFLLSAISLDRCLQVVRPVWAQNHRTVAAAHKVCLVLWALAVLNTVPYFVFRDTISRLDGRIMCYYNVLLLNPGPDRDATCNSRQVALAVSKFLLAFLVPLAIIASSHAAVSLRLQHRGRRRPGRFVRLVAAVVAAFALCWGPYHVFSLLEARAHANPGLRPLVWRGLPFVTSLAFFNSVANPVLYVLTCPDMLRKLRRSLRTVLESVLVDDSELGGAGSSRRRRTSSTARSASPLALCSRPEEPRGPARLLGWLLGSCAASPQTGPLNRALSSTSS
Put plainly: Radioligand Binding Assay and [35S] GTP-gamma-S Binding Assay.
Settings: not given
Here is the method:
(§1) A scintillation proximity assay was used for radioligand competition and saturation binding assays. Nonspecific binding was determined in the presence of 1 uM PGD2. Binding activity was determined by using a 1450 Microbeta scintillation counter (Wallac, UK). Ki values were calculated by using the Cheng-Prusoff equation, and represent the average of at least three independent dose-response experiments. EC50/IC50 values were obtained from GTP-gamma-S binding assay, which measures antagonist activity of compounds in the presence of 80 nM PGD2.
For orientation: GTPγS is a poorly hydrolysed GTP analogue; its binding reports G protein activation.
Broadly, the pKi is −log10 of the Ki, conventionally taken in molar units. Compound `O=C(O)CN1C(=O)[C@@]2(CC(=O)N(Cc3cc(Cl)ccc3F)C2)c2cc(Cl)ccc21` [2-[(3S)-5-chloro-1'-[(5-chloro-2-fluorophenyl)methyl]-1,2-dihydrospiro[indole-3,3'-pyrrolidine]-2,5'-dione]acetic acid] had a pKi of 7.89.
`O=C(O)CN1C(=O)[C@]2(CC(=O)N(Cc3cc(Cl)ccc3F)C2)c2cc(Cl)ccc21` [2-[(3R)-5-chloro-1'-[(5-chloro-2-fluorophenyl)methyl]-1,2-dihydrospiro[indole-3,3'-pyrrolidine]-2,5'-dione]acetic acid] had a pKi of 6.17.

Staying with this experiment, now noted: pH 7.4; 22 °C.
Broadly, the pIC50 is −log10 of the IC50, conventionally taken in molar units. A lower pIC50 goes with a large IC50. The compound `O=C(O)CN1C(=O)C2(CC(=O)N(Cc3ccccc3F)C2=O)c2cc(Cl)ccc21` (configuration not stated) [2-{5-chloro-1'-[(2-fluorophenyl)methyl]-1,2-dihydrospiro[indole-3,3'-pyrrolidine]-2,2',5'-trione}acetic acid] had a pIC50 of 6.67.
On the same count and under the same terms, the figure for `O=C(O)CN1C(=O)C2(CC(=O)N(Cc3cccc(Cl)c3)C2=O)c2cc(Cl)ccc21` (configuration not stated) [2-{5-chloro-1'-[(3-chlorophenyl)methyl]-1,2-dihydrospiro[indole-3,3'-pyrrolidine]-2,2',5'-trione}acetic acid] is 6.91.
Still for that read-out and setting: with `O=C(O)CN1C(=O)C2(CC(=O)N(Cc3ccc(F)cc3)C2=O)c2cc(Cl)ccc21` (configuration not stated) [2-{5-chloro-1'-[(4-fluorophenyl)methyl]-1,2-dihydrospiro[indole-3,3'-pyrrolidine]-2,2',5'-trione}acetic acid] the figure was 6.74.
The same measure, in the same setting: with `O=C(O)CN1C(=O)C2(CC(=O)N(Cc3ccccc3)C2=O)c2cc(Cl)ccc21` (configuration not stated) [2-{1'-benzyl-5-chloro-1,2-dihydrospiro[indole-3,3'-pyrrolidine]-2,2',5'-trione}acetic acid] the figure was 6.38.

The next experiment has as its target T2, Prostaglandin D2 receptor 2 (Mus musculus, UniProt Q9Z2J6).
T2 sequence (Q9Z2J6 whole entry): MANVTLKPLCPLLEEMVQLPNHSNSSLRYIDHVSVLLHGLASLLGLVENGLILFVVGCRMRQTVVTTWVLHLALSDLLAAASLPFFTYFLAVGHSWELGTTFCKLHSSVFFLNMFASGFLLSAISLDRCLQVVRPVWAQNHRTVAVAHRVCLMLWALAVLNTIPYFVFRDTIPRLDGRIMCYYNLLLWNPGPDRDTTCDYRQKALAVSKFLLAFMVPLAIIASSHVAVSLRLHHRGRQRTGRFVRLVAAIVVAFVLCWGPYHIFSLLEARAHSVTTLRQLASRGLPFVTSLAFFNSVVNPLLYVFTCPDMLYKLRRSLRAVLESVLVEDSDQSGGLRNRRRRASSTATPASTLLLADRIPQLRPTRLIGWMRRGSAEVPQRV
Described as above.
Settings: not given
Here is the method: as §1
In turn, `O=C(O)CN1C(=O)[C@@]2(CC(=O)N(Cc3cc(Cl)ccc3F)C2)c2cc(Cl)ccc21` [2-[(3S)-5-chloro-1'-[(5-chloro-2-fluorophenyl)methyl]-1,2-dihydrospiro[indole-3,3'-pyrrolidine]-2,5'-dione]acetic acid] gave a pKi of 7.06.

The target in another experiment is T1, Prostaglandin D2 receptor 2. Kind of experiment: Radioligand Binding Assay.
Settings: not given
By pEC50 is commonly meant the EC50 on a negative log10 scale, so that one unit is a factor of ten. On to `Cc1onc(-c2ccccc2)c1CN1C(=O)CC2(C1=O)C(=O)N(CC(=O)O)c1ccc(Cl)cc12` (configuration not stated) [2-{5-chloro-1'-[(5-methyl-3-phenyl-1,2-oxazol-4-yl)methyl]-1,2-dihydrospiro[indole-3,3'-pyrrolidine]-2,2',5'-trione}acetic acid], for which the pEC50 was 7.68.
Turning to `O=C(O)CN1C(=O)C2(CC(=O)N(Cc3cc(Cl)cc(Cl)c3)C2=O)c2cc(Cl)ccc21` (configuration not stated) [2-{5-chloro-1'-[(3,5-dichlorophenyl)methyl]-1,2-dihydrospiro[indole-3,3'-pyrrolidine]-2,2',5'-trione}acetic acid], the pEC50 is 7.09.
Compound `Cc1nc(CN2C(=O)CC3(C2=O)C(=O)N(CC(=O)O)c2ccc(Cl)cc23)cs1` (configuration not stated) [2-{5-chloro-1'-[(2-methyl-1,3-thiazol-4-yl)methyl]-1,2-dihydrospiro[indole-3,3'-pyrrolidine]-2,2',5'-trione}acetic acid] gave a pEC50 of 6.63.
On the same count and under the same terms, with `O=C(O)CN1C(=O)C2(CC(=O)N(Cc3csc(-c4cccc(Cl)c4)n3)C2=O)c2cc(Cl)ccc21` (configuration not stated) [2-(5-chloro-1'-{[2-(3-chlorophenyl)-1,3-thiazol-4-yl]methyl}-1,2-dihydrospiro[indole-3,3'-pyrrolidine]-2,2',5'-trione)acetic acid] the figure was 7.32; with `Cc1noc(C)c1CN1C(=O)CC2(C1=O)C(=O)N(CC(=O)O)c1ccc(Cl)cc12` (configuration not stated) [2-{5-chloro-1'-[(3,5-dimethyl-1,2-oxazol-4-yl)methyl]-1,2-dihydrospiro[indole-3,3'-pyrrolidine]-2,2',5'-trione}acetic acid], 6.66; with `Cc1noc(-c2ccccc2)c1CN1C(=O)CC2(C1=O)C(=O)N(CC(=O)O)c1ccc(Cl)cc12` (configuration not stated) [2-{5-chloro-1'-[(3-methyl-5-phenyl-1,2-oxazol-4-yl)methyl]-1,2-dihydrospiro[indole-3,3'-pyrrolidine]-2,2',5'-trione}acetic acid], 7.64.
The same measure, in the same setting: the figure for `O=C(O)CN1C(=O)[C@@]2(CC(=O)N(Cc3cc(Cl)ccc3F)C2=O)c2cc(Cl)ccc21` [2-[(3R)-5-chloro-1'-[(5-chloro-2-fluorophenyl)methyl]-1,2-dihydrospiro[indole-3,3'-pyrrolidine]-2,2',5'-trione]acetic acid] is 7.18; for `O=C(O)CN1C(=O)[C@@]2(CC(=O)N(Cc3cccc(Cl)c3)C2=O)c2cc(Cl)ccc21` [2-[(3R)-5-chloro-1'-[(3-chlorophenyl)methyl]-1,2-dihydrospiro[indole-3,3'-pyrrolidine]-2,2',5'-trione]acetic acid] it is 6.97; for `Cc1noc(-c2ccccc2)c1CN1CC2(CC1=O)C(=O)N(CC(=O)O)c1ccc(Cl)cc12` (configuration not stated) [2-{5-chloro-1'-[(3-methyl-5-phenyl-1,2-oxazol-4-yl)methyl]-1,2-dihydrospiro[indole-3,3'-pyrrolidine]-2,5'-dione}acetic acid] it is 7.72.
Take `O=C(O)CN1C(=O)C2(CC(=O)N(Cc3cc(Cl)ccc3F)C2=O)c2cc(Cl)ccc21` (configuration not stated) [2-{5-chloro-1'-[(5-chloro-2-fluorophenyl)methyl]-1,2-dihydrospiro[indole-3,3'-pyrrolidine]-2,2',5'-trione}acetic acid]: the pEC50 was 7.32.
